Experimental data published in article PMC10940605, “Design, synthesis and in vitro anticancer activity of some new lomefloxacin derivatives” (Scientific Reports, 2024).

Legend:
[1] = test system: SW-620; experiment: NCI-60 SRB screen; type: cell-based; settings: Homo sapiens; SW-620, 10^–5 Molar; read-out: Percent growth inhibition
Procedure: (§1) All newly synthesized compounds were selected and screened for anticancer activity against 60 human cancer cell lines representing 9 types of tumors including leukemia, melanoma, lung, colon, CNS, ovarian, renal, prostate, and breast cancers at the National Cancer Institute (NCI), Bethesda, USA. Screening was performed utilizing a single dose (10^−5 M concentration) and cells were incubated for 48 h. The end point was determined using sulforhodamine B (SRB) dye.
(§2) In this study, all the 16 newly synthesized compounds were submitted to the National Cancer Institute (USA) for anticancer evaluation and were selected and evaluated using 60 different human tumor cell lines representing lung, colon, CNS, ovarian, renal, prostate, breast cancers as well as leukemia and melanoma. A single dose (10^–5 Molar) was used for the initial screening for evaluation of anticancer activity. The 60 human cancer cell lines were provided by the national cancer institute biomedical research campus in Frederick, Maryland.
(§3) 60 different human cancer cell lines were utilized to screen the newly synthesized compounds for anticancer activity according to the previously reported standard procedure[24]–[26] as follows: • 96 well microtiter plates were used to inoculate the cells at […] ranging from 4000–5000 cells/well depending on the replication time of individual cell lines. Roswell Park Memorial Institute culture medium (RPMI 1640 medium) containing 2 mM L-glutamine and fetal bovine serum was used to grow the cells at 37 °C, 5% CO2, 95% air and 100% relative humidity for 24 h. • Fixation of cells in two plates of each cell line in situ was done using trichloroacetic acid (TCA). This represented the measurement of cell population at the time of drug addition (Tz). • Dimethyl sulfoxide (DMSO) was used to dissolve the synthesized compounds at 400-fold the desired final maximum concentration and frozen prior to use. This frozen concentrate was melted and diluted to twice the final concentration with complete medium containing 50 µg/mL gentamycin at time of drug addition. • The final compound concentration was obtained by adding 100 µL of the synthesized compounds to the appropriate microtiter wells already containing 100 µL followed by incubation of the plates at 37 °C, 5% CO2, 95% air and 100% relative humidity for 48 h. • Fixation of the cells was achieved by gentle addition of 50 µL of cold 50% (w/v) TCA followed by incubation for 60 min at 4 °C. The supernatant was then discarded and the plates are washed 5 times with tap water and air dried. • Sulphorhodamine B (SRB) solution (100 µL) at 0.4% (w/v) in 1% acetic acid was added to each plate followed by incubation for 10 min at room temperature. The unbound dye was then removed by washing five times with 1% acetic acid and plates were air dried. • Dissolution of the bound stain was done using […] trizma base and the absorbance was read at […] wavelength using an automated plate reader. • The percentage growth inhibition was calculated as follows: Ti-Tz/C-Tz×100forconcentrationswhichTi≥Tz Ti-Tz/Tz×100forconcentrationswhichTi<Tz • Time zero (Tz) • Control growth (C) • Test growth in the presence of drug (Ti)

[2] = test system: OVCAR-4; experiment: NCI-60 SRB screen; type: cell-based; settings: Homo sapiens; OVCAR-4, 10^–5 Molar; read-out: Percent growth inhibition
Procedure: as §1, §2, §3

[3] = test system: PC-3; experiment: NCI-60 SRB screen; type: cell-based; settings: Homo sapiens; PC-3, 10^–5 Molar; read-out: Percent growth inhibition
Procedure: as §1, §2, §3

[4] = test system: MCF7; experiment: NCI-60 SRB screen; type: cell-based; settings: Homo sapiens; MCF7, 10^–5 Molar; read-out: Percent growth inhibition
Procedure: as §1, §2, §3

[5] = test system: SF-539; experiment: NCI-60 SRB screen; type: cell-based; settings: Homo sapiens; SF-539, 10^–5 Molar; read-out: Percent growth inhibition
Procedure: as §1, §2, §3

[6] = test system: NCI-H522; experiment: NCI-60 SRB screen; type: cell-based; settings: Homo sapiens; NCI-H522, 10^–5 Molar; read-out: Percent growth inhibition
Procedure: as §1, §2, §3

[7] = test system: SK-MEL-2; experiment: NCI-60 SRB screen; type: cell-based; settings: Homo sapiens; SK-MEL-2, 10^–5 Molar; read-out: Percent growth inhibition
Procedure: as §1, §2, §3

[8] = test system: SNB-75; experiment: NCI-60 SRB screen; type: cell-based; settings: Homo sapiens; SNB-75, 10^–5 Molar; read-out: Percent growth inhibition
Procedure: as §1, §2, §3

[9] = test system: BT-549; experiment: NCI-60 SRB screen; type: cell-based; settings: Homo sapiens; BT-549, 10^–5 Molar; read-out: Percent growth inhibition
Procedure: as §1, §2, §3

[10] = test system: UO-31; experiment: NCI-60 SRB screen; type: cell-based; settings: Homo sapiens; UO-31, 10^–5 Molar; read-out: Percent growth inhibition
Procedure: as §1, §2, §3

[11] = test system: MDA-MB-231/ATCC; experiment: NCI-60 SRB screen; type: cell-based; settings: Homo sapiens, 10^–5 Molar, read-out: Percent growth inhibition
Procedure: as §1, §2, §3

[12] = test system: CAKI-1; experiment: NCI-60 SRB screen; type: cell-based; settings: Homo sapiens; CAKI-1, 10^–5 Molar; read-out: Percent growth inhibition
Procedure: as §1, §2, §3

[13] = test system: NCI/ADR-RES; experiment: NCI-60 SRB screen; type: cell-based; settings: Homo sapiens, 10^–5 Molar, read-out: Percent growth inhibition
Procedure: as §1, §2, §3

[14] = test system: UACC-62; experiment: NCI-60 SRB screen; type: cell-based; settings: Homo sapiens; UACC-62, 10^–5 Molar; read-out: Percent growth inhibition
Procedure: as §1, §2, §3

[15] = test system: SNB-19; experiment: NCI-60 SRB screen; type: cell-based; settings: Homo sapiens; SNB-19, 10^–5 Molar; read-out: Percent growth inhibition
Procedure: as §1, §2, §3

[16] = test system: LOX IMVI; experiment: NCI-60 SRB screen; type: cell-based; settings: Homo sapiens, 10^–5 Molar, read-out: Percent growth inhibition
Procedure: as §1, §2, §3

[17] = test system: MDA-MB-435; experiment: NCI-60 SRB screen; type: cell-based; settings: Homo sapiens; MDA-MB-435, 10^–5 Molar; read-out: Percent growth inhibition
Procedure: as §1, §2, §3

[18] = test system: HS 578T; experiment: NCI-60 SRB screen; type: cell-based; settings: Homo sapiens, 10^–5 Molar, read-out: Percent growth inhibition
Procedure: as §1, §2, §3

[19] = test system: 60 human cancer cell lines; experiment: NCI-60 SRB screen, whole panel; type: cell-based; settings: Homo sapiens, 48 h; One Dose Mean Graph, Conc 1.00E-5 Molar; read-out: Mean Growth Percent
[20] = test system: leukemia SR cells; experiment: Cell cycle analysis, PI flow cytometry; type: cell-based, human; set-up: increase of cells at pre-G1 phase vs control: concentration or dose not given beside the values
Procedure: The cells were washed twice using Ice-cold phosphate buffer saline (PBS). • Centrifugation was used to collect the cells, then the cells were fixed in 70% (v/v) ethanol, washed with PBS and re-suspended with 0.10 mg/mL RNase. • After that, cells were stained with […] propidium iodide (PI) and evaluated by flow cytometry using FACSCalibur (Becton Dickinson).

[21] = test system: leukemia SR cells; experiment: Apoptosis, Annexin-V-FITC/PI; settings: 3e at 1.90 µM, 24 h
[22] = target: T1, topoisomerase IIα (Homo sapiens, UniProt P11388); experiment: Topoisomerase ELISA kit inhibitory assay; type: biochemical; settings: four concentrations
T1 construct: purchased MBS2885049
Procedure: Four concentrations were used and IC50 was calculated.
Compound 3a,b,c,e were evaluated for topoisomerase IIα inhibitory activity utilizing the human DNA topoisomerase ELISA kit (MBS2885049) and following the provided procedure: • Standards and the tested compound were dissolved in sample diluent and tenfold serial dilution was achieved. • Biotin-conjugated antibody and avidin conjugated Horseradish Peroxidase (HRP-avidin) were diluted to tenfolds. • 100 µL of each concentration of standard or test compounds were added to each well and incubated at 37 °C for 1 h. • Removal of the liquid in each well was done. • To each well 100 µL of Biotin-conjugated antibody solution was added followed by incubation for 1 h at 37 °C. • The microtiter plate was allowed to aspirate and washed 3 times. • 100 µL of avidin conjugated Horseradish Peroxidase (HRP-avidin) solution was added to each well and incubatation for 1 h at 37 °C was achieved. • The plate was aspirated and washed 5 times. • Addition of 90 µL of 3,3′,5,5′-tetramethylbenzidine (TMB) substrate to each well followed by plate incubated for 30 min at 37 °C and protection from light was done. • 50 µL stop solution was added.

[23] = target: Topoisomerase II; set-up: method as in PMID 10051540, PMID 8824299, PMID 9651360; settings: Topoisomerase II catalytic inhibitor, Fig. 1; cited from earlier work
[24] = test system: HCT-8 cancer cell lines; set-up: method as in PMID 22301863; settings: HCT-8, Fig. 2; cited from earlier work
[25] = test system: MCF-7 cancer cell lines; set-up: method as in PMID 22301863; settings: MCF-7, Fig. 2; cited from earlier work
[26] = test system: SMMC7721 cancer cell lines; set-up: method as in PMID 22301863; settings: SMMC7721, Fig. 2; cited from earlier work

T1 sequence (P11388 whole entry): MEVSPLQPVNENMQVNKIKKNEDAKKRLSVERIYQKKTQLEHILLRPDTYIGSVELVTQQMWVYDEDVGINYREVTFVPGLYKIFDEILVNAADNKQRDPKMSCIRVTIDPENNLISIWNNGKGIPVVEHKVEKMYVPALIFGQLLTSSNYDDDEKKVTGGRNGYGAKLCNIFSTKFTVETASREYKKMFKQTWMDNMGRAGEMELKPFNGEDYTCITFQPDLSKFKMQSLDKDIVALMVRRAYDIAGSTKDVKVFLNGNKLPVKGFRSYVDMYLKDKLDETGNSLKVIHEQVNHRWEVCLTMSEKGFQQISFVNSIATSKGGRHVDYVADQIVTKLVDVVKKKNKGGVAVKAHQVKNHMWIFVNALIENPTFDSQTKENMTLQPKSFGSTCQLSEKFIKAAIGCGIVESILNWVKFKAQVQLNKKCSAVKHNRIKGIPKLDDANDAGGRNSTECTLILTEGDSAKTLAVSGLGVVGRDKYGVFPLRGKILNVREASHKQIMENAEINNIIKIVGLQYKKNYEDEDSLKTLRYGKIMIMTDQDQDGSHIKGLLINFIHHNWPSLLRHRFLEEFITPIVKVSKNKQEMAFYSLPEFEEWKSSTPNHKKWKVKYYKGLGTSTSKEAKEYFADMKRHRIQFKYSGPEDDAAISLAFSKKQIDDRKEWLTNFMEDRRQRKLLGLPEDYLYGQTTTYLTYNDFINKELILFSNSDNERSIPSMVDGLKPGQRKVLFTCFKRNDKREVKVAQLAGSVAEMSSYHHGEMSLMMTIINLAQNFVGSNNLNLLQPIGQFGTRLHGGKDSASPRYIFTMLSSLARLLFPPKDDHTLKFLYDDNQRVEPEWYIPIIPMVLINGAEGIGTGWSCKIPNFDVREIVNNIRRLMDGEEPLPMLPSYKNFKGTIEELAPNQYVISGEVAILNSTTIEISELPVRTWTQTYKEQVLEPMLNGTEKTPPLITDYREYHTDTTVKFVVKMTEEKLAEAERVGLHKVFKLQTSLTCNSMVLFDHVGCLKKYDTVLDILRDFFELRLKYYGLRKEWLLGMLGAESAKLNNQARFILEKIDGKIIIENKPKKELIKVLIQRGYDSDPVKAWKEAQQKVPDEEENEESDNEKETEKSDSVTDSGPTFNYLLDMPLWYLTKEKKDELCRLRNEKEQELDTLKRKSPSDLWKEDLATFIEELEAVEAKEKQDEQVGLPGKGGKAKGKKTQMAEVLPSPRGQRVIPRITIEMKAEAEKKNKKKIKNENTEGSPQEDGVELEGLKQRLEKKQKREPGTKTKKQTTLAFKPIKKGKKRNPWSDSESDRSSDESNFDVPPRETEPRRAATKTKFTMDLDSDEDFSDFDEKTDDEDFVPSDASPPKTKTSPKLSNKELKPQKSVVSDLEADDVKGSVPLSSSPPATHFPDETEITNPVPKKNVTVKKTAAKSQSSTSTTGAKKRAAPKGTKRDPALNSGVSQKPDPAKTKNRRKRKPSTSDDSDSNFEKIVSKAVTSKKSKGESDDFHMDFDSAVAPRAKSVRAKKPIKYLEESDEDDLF

`CCn1cc(C(=O)O)c(=O)c2cc(F)c(N3CCN(CC(=O)Nc4ccc(S(N)(=O)=O)cc4)C(C)C3)c(F)c21` (stereo not shown) [Compound 5d, 1-Ethyl-6,8-difluoro-7-(3-methyl-4-(2-oxo-2-((4-sulfamoylphenyl)amino)ethyl)piperazin-1-yl)-4-oxo-1,4-dihydroquinoline-3-carboxylic acid] gave an inhibition at 10 µM [1] of 0.37%, an inhibition at 10 µM [2] of 3.58% and an inhibition at 10 µM [3] of 1.64%. It also gave an inhibition at 10 µM [4] of 5.22%, an inhibition at 10 µM [5] of 0.93% and an inhibition at 10 µM [6] of 6.33%. The inhibition at 10 µM [7] was 2.33%, the inhibition at 10 µM [8] was 11.9% and the inhibition at 10 µM [9] was 0.7%. For the same compound, the inhibition at 10 µM [10] was 12.9%, the inhibition at 10 µM [11] was 0.31% and the inhibition at 10 µM [12] was 3.88%. It also gave an inhibition at 10 µM [13] of 0.27%, an inhibition at 10 µM [14] of 9.32% and an inhibition at 10 µM [15] of 3.07%. The inhibition at 10 µM [16] was 4.12%, the inhibition at 10 µM [17] was 1.15% and the inhibition at 10 µM [18] was 0.41%. The melting point was 228 to 230 °C and the activity at 10 µM [19] was 103%.

In the case of `COc1cccc2c1C(=O)c1c(O)c3c(c(O)c1C2=O)C[C@@](O)(C(=O)CO)C[C@@H]3O[C@H]1C[C@H](N)[C@H](O)[C@H](C)O1` [Doxorubicin, reference compound], the “increase of cells at pre-G1 phase vs control” value [20] is reported as 8.62 folds, the “%G0-G1” value ([20]; 3e at 1.90 µM, 24 h) is reported as 25.18% and the “%G2-M” value ([20]; 3e at 1.90 µM, 24 h) is reported as 46.06%. The “%Pre-G1” value ([20]; 3e at 1.90 µM, 24 h) was 22.17%, the “%S” value ([20]; 3e at 1.90 µM, 24 h) was 28.76% and the “Apoptosis %Early” value [21] was 5.88%. For the same compound, the “Apoptosis %Late” value [21] was 12.21%, the “Apoptosis %Total” value [21] was 22.17% and the Necrosis [21] was 4.08%. For the same compound, the IC50 [22] was 0.61 µM.

In the case of `O=C1NC(=S)NC(=O)C1C(=O)Nc1ccccc1` [Merbarone], the IC50 [23] is given as 20 µM.

In the case of `O=C(N/N=C/c1ccc2c(c1)OCO2)c1cn(C2CC2)c2cc(N3CCNCC3)c(F)cc2c1=O` [QNT4], the IC50 [24] is listed as 3.69 µM, the IC50 [25] is listed as 3.71 µM and the IC50 [26] is listed as 2.96 µM.
